Source: patent US12187713B2, “Immunomodulators, compositions and methods thereof” (Betta Pharmaceuticals Co., Ltd, priority 2019, dated 2025)
pIC50: −log10 of the molar value.

What was measured:
PD-1/PD-L1 = PD-1/PD-L1 (Homo sapiens (Human), UniProt Q9NZQ7); assay: PD-1/PD-L1 Binding Assay (Alphascreen)
Method in brief: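 PD-1/PD-L1 binding detected by anti-6×His acceptor and streptavidin donor beads after 120 min in the dark at 25 °C. Beforehand, the two proteins were incubated 15 min at 25 °C with inhibitor at 0.015–300 nM (1% DMSO). IC50 comes from a log concentration–response curve.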

[1] = Pharmacokinetic Assay, single oral dose 5 mg/kg (Table 12); type: in vivo; settings: mouse, plasma concentration, C57 female mice, single oral dose 5 mg/kg
Method: Adult C57 female mice were received to single-dose of the test compounds with 15% DMSO, 10% Kolliphor^@HS 15 and 75% saline as excipients, the mice (n=3) were giving oral administration (intragastric administration) with the compounds at a dose of 5 mg/kg. Time of blood collection: 30 min, 2 h, 4 h. approximately 0.1 mL of whole blood was collected from retro-orbital venous plexus, and placed into tubes that contained K2-EDTA as an anticoagulant. The whole blood were centrifuged at 4° C. and 4000 rpm for 10 min. The plasma was transferred into centrifuge tubes, and stored at −20° C. until being analyzed. Concentrations of test compounds in the plasma samples were analyzed with liquid chromatography-tandem mass spectrometry (LC-MS/MS). Plasma concentration-time data of individual animals was analyzed using Microsoft Excel 2010.

PD-1/PD-L1, sequence (Q9NZQ7 19-238): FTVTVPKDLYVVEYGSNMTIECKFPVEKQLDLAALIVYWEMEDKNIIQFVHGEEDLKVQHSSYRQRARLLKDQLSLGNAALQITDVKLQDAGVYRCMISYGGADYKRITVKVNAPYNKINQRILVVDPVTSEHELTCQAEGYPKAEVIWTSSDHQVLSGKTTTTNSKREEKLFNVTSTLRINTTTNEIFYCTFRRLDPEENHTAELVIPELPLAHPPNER

Structure (SMILES) | pIC50 (PD-1/PD-L1; numeric values) | concentration at 0.5 h [1] [ng/mL] | concentration at 2 h [1] [ng/mL] | concentration at 4 h [1] [ng/mL] | pIC50 (PD-1/PD-L1; range symbols)
Cc1c(-c2nc3cc(CN4CCC[C@H]4C(=O)O)c(OC(F)F)cc3o2)cccc1-c1cccc(-c2nc3cc(CN4CC[C@@H](C)C4)cnc3o2)c1C [Example 114, ((6-(difluoromethoxy)-2-(2,2′-dimethyl-3′-(6-(((R)-3-methylpyrrolidin-1-yl)methyl)oxazolo [5,4-b]pyridin-2-yl)-[1,1′-biphenyl]-3-yl)benzo[d]oxazol-5-yl)methyl)-L-proline] | 9.00 | 65.6 | 237 | 152 | –
Cc1c(-c2nc3cc(CN4C[C@@H](F)[C@H](F)C4)c(OC(F)F)cc3o2)cccc1-c1cccc(-c2nc3cc(CN4CCC[C@H]4C(=O)O)c(OC(F)F)cc3o2)c1C [Example 18, ((6-(difluoromethoxy)-2-(3′-(6-(difluoromethoxy)-5-(((3R,4R)-3,4-difluoropyrrolidin-1-yl)methyl)benzo[d]oxazol-2-yl)-2,2′-dimethyl-[1,1′-biphenyl]-3-yl)benzo[d]oxazol-5-yl)methyl)-L-proline] | 6.79 | 303 | 642 | 626 | –
Cc1c(-c2nc3cc(CN4CCC[C@H]4C(=O)O)c(OC(F)F)cc3o2)cccc1-c1cccc(-c2ccc(CN3CCCC3)cc2Cl)c1C [Example 231, ((2-(2″-chloro-2,2′-dimethyl-4″-(pyrrolidin-1-ylmethyl)-[1,1′:3′,1″-terphenyl]-3-yl)-6-(difluoromethoxy)benzo[d]oxazol-5-yl)methyl)-L-proline] | 7.11 | 36.9 | 160 | 156 | –
Cc1c(-c2nc3c(o2)CCCC3)cccc1-c1cccc(-c2nc3cc(CN4CCC[C@H]4C(=O)O)c(OC(F)F)cc3o2)c1C [Example 205, ((6-(difluoromethoxy)-2-(2,2′-dimethyl-3′-(4,5,6,7-tetrahydrobenzo[d]oxazol-2-yl)-[1,1′-biphenyl]-3-yl)benzo[d]oxazol-5-yl)methyl)proline] | – | 1000 | 1440 | 1420 | 8.30 to 10.00
COc1c(-c2nc3cc(CN4CCCC4)c(F)c(F)c3o2)cccc1-c1cccc(-c2nc3cc(CN4CCC[C@H]4C(=O)O)c(OC(F)F)cc3o2)c1C [Example 117, ((2-(3′-(6,7-difluoro-5-(pyrrolidin-1-ylmethyl)benzo[d]oxazol-2-yl)-2′-methoxy-2-methyl-[1,1′-biphenyl]-3-yl)-6-(difluoromethoxy)benzo[d]oxazol-5-yl)methyl)-L-proline] | – | 121 | 319 | 243 | 8.30 to 10.00
Cc1c(-c2nc3cc(CN4CCC(C)(C)C4)c(OC(F)F)cc3o2)cccc1-c1cccc(-c2nc3cc(CN4CCC[C@H]4C(=O)O)c(OC(F)F)cc3o2)c1C [Example 67, ((6-(difluoromethoxy)-2-(3′-(6-(difluoromethoxy)-5-((3,3-dimethylpyrrolidin-1-yl)methyl)benzo[d]oxazol-2-yl)-2,2′-dimethyl-[1,1′-biphenyl]-3-yl)benzo[d]oxazol-5-yl)methyl)-L-proline] | 8.17 | 143 | 418 | 462 | –
Cc1c(-c2nc3cc(CN4CCC[C@H]4C(=O)O)c(OC(F)F)cc3o2)cccc1-c1cccc(-c2nc3cc(CN4CC5CC4C5)cc(C(F)(F)F)c3o2)c1C [Example 89] | – | 21.3 | 124 | 109 | 8.30 to 10.00
Cc1c(-c2nc3cc(CN4CC[C@@H](C(=O)O)C4)c(OC(F)F)cc3o2)cccc1-c1cccc(-c2nc3cc(CN4CC(C)(C)C4)c(OC(F)F)cc3o2)c1C [Example 85, (R)-1-((6-(difluoromethoxy)-2-(3′-(6-(difluoromethoxy)-5-((3,3-dimethylazetidin-1-yl)methyl)benzo[d]oxazol-2-yl)-2,2′-dimethyl-[1,1′-biphenyl]-3-yl)benzo[d]oxazol-5-yl)methyl)pyrrolidine-3-carboxylic acid] | – | 75.9 | 146 | 135 | 8.30 to 10.00
CCS(=O)(=O)N1CCc2oc(-c3cccc(-c4cccc(-c5nc6cc(CN7CCC[C@H]7C(=O)O)c(OC(F)F)cc6o5)c4C)c3C)nc2C1 [Example 197, ((6-(difluoromethoxy)-2-(3′-(5-(ethylsulfonyl)-4,5,6,7-tetrahydrooxazolo[4,5-c]pyridin-2-yl)-2,2′-dimethyl-[1,1′-biphenyl]-3-yl)benzo[d]oxazol-5-yl)methyl)proline] | – | 527 | 741 | 369 | 7.30 to 8.30
Cc1c(-c2nc3cc(CN4CCC[C@H]4C(=O)O)c(OC(F)F)cc3o2)cccc1-c1cccc(-c2nc3cc(CN4CCCC4)c(F)c(F)c3o2)c1C [Example 102, ((2-(3′-(6,7-difluoro-5-(pyrrolidin-1-ylmethyl)benzo[d]oxazol-2-yl)-2,2′-dimethyl-[1,1′-biphenyl]-3-yl)-6-(difluoromethoxy)benzo[d]oxazol-5-yl)methyl)-L-proline] | 7.74 | 85.9 | 282 | 292 | –
Cc1c(-c2ccc(CN3CCC(F)C3)cc2)cccc1-c1cccc(-c2nc3cc(CN4CCC[C@H]4C(=O)O)c(OC(F)F)cc3o2)c1C (stereo partly drawn) [Example 242, ((6-(difluoromethoxy)-2-(4″-((3-fluoropyrrolidin-1-yl)methyl)-2,2′-dimethyl-[1,1′:3′,1″-terphenyl]-3-yl)benzo[d]oxazol-5-yl)methyl)proline] | – | 90.4 | 223 | 202 | 8.30 to 10.00
Cc1c(-c2nc3cc(CN4CCC[C@H]4C(=O)O)c(OC(F)F)cc3o2)cccc1-c1cccc(-c2ccc(CN3CCCC3)cc2F)c1C [Example 253, ((6-(difluoromethoxy)-2-(2″-fluoro-2,2′-dimethyl-4″-(pyrrolidin-1-ylmethyl)-[1,1′:3′,1″- terphenyl]-3-yl)benzo[d]oxazol-5-yl)methyl)-L-proline] | 8.33 | 42.3 | 199 | 181 | –
Cc1c(-c2nc3c(o2)CCN(CCCC(F)(F)F)C3)cccc1-c1cccc(-c2nc3cc(CN4CCC[C@H]4C(=O)O)c(OC(F)F)cc3o2)c1C [Example 191, ((6-(difluoromethoxy)-2-(2,2′-dimethyl-3′-(5-(4,4,4-trifluorobutyl)-4,5,6,7-tetrahydrooxazolo[4,5-c]pyridin-2-yl)-[1,1′-biphenyl]-3-yl)benzo[d]oxazol-5-yl)methyl)proline] | – | 520 | 1170 | 1330 | 7.30 to 8.30
Cc1c(-c2ccc(CN3CCCC3)c(=O)[nH]2)cccc1-c1cccc(-c2nc3cc(CN4CCC[C@H]4C(=O)O)c(OC(F)F)cc3o2)c1C [Example 267, ((6-(difluoromethoxy)-2-(2,2′-dimethyl-3′-(6-oxo-5-(pyrrolidin-1-ylmethyl)-1,6-dihydropyridin-2-yl)-[1,1′-biphenyl]-3-yl)benzo[d]oxazol-5-yl)methyl)-L-proline] | – | – | – | – | 7.30 to 8.30
Cc1c(-c2nc3cc(CN4CCC[C@H]4C(=O)O)c(OC(F)F)cc3o2)cccc1-c1cccc(-c2nc3cc(CNCC4CCC(=O)N4)cc(C#N)c3o2)c1C (stereo partly drawn) [Example 139, ((2-(3′-(7-cyano-5-((((5-oxopyrrolidin-2-yl)methyl)amino)methyl)benzo[d]oxazol-2-yl)-2,2′-dimethyl-[1,1′-biphenyl]-3-yl)-6-(difluoromethoxy)benzo[d]oxazol-5-yl)methyl)-L-proline] | – | – | – | – | 8.30 to 10.00
Cc1c(-c2nc3cc(CN4CCC[C@H]4C(=O)O)c(OC(F)F)cc3o2)cccc1-c1cccc(-c2nc3cc(CN4CCCC4)cnc3o2)c1C [Example 112, ((6-(difluoromethoxy)-2-(2,2′-dimethyl-3′-(6-(pyrrolidin-1-ylmethyl)oxazolo[5,4-b]pyridin-2-yl)-[1,1′-biphenyl]-3-yl)benzo[d]oxazol-5-yl)methyl)-L-proline] | – | – | – | – | 8.30 to 10.00
Cc1c(Nc2cc(CN3CCCC3)ccn2)cccc1-c1cccc(-c2nc3cc(OC(F)F)c(CN4CCC[C@H]4C(=O)O)cc3o2)c1C [Example 183, ((5-(difluoromethoxy)-2-(2,2′-dimethyl-3′-((4-(pyrrolidin-1-ylmethyl)pyridin-2-yl)amino)-[1,1′-biphenyl]-3-yl)benzo[d]oxazol-6-yl)methyl)-L-proline] | – | – | – | – | 7.30 to 8.30
Cc1c(-c2nc3cc(CN4CCC[C@@H]4C(=O)O)c(OC(F)F)cc3o2)cccc1-c1cccc(-c2nc3cc(CN4CC(C)(C)C4)c(OC(F)F)cc3o2)c1C#N [Example 87, ((2-(2′-cyano-3′-(6-(difluoromethoxy)-5-((3,3-dimethylazetidin-1-yl)methyl)benzo[d]oxazol-2-yl)-2-methyl-[1,1′-biphenyl]-3-yl)-6-(difluoromethoxy)benzo[d]oxazol-5-yl)methyl)-D-proline] | – | – | – | – | 8.30 to 10.00
